Test results reported in patent US12246008B2, “4-amino or 4-alkoxy-substituted aryl sulfonamide compounds with selective activity in voltage-gated sodium channels” (Merck Sharp & Dohme LLC, priority 2018, dated 2025).
Where two headings read alike, the source gives them in different places.

How the values were obtained:
Test in all cases: Qube automated patch-clamp assay, inhibition of sodium current
Type in all cases: cell-based
NaV1.5 = NaV1.5 (Homo sapiens, UniProt Q14524); settings: holding potential −80 mV; max concentration tested 33750 nM
Sequence of NaV1.5 (Q14524 whole entry): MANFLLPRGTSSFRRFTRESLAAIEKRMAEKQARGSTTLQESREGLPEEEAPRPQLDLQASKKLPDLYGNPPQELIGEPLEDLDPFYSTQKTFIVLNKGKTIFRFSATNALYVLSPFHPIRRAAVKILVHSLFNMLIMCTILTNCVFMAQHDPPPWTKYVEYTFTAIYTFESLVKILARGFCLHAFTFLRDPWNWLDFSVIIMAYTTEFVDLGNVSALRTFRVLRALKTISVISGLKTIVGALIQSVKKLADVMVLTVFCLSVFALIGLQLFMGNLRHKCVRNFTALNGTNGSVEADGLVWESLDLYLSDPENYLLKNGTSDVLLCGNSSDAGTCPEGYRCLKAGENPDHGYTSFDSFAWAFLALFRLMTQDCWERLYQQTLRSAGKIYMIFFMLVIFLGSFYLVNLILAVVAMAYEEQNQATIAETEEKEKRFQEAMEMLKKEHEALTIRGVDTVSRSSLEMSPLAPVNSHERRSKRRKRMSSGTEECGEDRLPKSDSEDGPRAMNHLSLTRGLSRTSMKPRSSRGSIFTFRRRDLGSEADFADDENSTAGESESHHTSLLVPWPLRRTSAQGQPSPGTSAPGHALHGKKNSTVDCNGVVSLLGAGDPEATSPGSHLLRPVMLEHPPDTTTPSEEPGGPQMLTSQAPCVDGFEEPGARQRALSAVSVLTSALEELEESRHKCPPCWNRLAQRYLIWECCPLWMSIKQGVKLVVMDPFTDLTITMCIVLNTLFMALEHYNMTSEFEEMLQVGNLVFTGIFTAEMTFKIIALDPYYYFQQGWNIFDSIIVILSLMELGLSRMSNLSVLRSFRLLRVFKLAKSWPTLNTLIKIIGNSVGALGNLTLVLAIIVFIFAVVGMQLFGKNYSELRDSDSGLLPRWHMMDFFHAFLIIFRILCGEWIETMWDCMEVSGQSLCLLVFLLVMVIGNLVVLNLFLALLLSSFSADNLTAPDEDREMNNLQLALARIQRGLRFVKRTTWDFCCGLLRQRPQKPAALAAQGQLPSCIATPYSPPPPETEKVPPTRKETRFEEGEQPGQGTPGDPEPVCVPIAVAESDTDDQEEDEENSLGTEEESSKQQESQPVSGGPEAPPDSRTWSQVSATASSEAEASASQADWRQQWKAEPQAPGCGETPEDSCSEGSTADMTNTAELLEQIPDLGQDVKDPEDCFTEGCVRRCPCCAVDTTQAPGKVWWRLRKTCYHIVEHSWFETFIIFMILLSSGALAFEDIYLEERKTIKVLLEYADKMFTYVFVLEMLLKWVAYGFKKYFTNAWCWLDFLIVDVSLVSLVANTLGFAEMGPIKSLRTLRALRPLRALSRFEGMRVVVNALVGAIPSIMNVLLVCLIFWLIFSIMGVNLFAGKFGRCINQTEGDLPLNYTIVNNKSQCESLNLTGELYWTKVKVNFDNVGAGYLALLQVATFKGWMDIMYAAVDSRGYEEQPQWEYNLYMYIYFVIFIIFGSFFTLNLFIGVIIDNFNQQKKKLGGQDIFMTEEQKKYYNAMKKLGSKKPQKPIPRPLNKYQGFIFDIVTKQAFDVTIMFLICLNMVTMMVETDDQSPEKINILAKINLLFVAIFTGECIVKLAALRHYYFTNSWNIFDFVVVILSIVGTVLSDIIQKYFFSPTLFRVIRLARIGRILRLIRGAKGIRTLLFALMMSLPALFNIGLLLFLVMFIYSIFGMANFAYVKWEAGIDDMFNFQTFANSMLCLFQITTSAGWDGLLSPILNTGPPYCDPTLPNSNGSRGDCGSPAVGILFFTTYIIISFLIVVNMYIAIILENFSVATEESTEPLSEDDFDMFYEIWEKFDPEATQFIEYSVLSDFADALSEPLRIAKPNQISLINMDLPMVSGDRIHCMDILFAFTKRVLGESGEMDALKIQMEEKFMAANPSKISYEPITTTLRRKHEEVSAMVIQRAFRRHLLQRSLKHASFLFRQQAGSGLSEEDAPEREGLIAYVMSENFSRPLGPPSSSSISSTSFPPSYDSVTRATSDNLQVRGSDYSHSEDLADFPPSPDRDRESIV
Experimental: (§1) Compounds were tested on human Nav1.7 and Nav1.6 channels stably expressed in HEK 293 cells. […] Cells were sealed on a planar substrate using the multihole technology. Cells expressing human Nav1.7 channels were held at −75 mV or −80 mV. Cells expressing human Nav1.6 channels were held at −65 mV. A train of 6 consecutive test pulses to −10 mV, preceded by 8 s prepulses to −115 mV, was applied at a frequency of 0.1 Hz before and after compound addition. Cells in each Qchip well were incubated in compound for 5 minutes before measuring inhibition. Peak currents were measured in control conditions and after compound addition. The following recording solutions were used (mM). External Nav1.6: 150 NaCl, 2 CaCl2), 5 KCl, 1 Mg Cl2, 10 HEPES, 12 Dextrose; external Nav1.7: 40 NaCl, 120 NMDG, 1 KCl, 0.5 MgCl2, 5 HEPES, 2.7 CaCl2); internal: 120 CsF, 30 CsCl, 10 EGTA, 5 HEPES, 5 NaF, 2 MgCl2. Compounds were prepared as 10 mM stock solutions in DMSO. 10 point compound titrations were generated using the Echo acoustic liquid handling instrument and glass coated 384 well plates. The final DMSO concentration in the assay was 0.3%. For all electrophysiology experiments, offline analysis was used to determine percent inhibition as a function of drug concentration. IC50 values were determined by fitting to the Hill equation.
(§2) The various compounds in EXAMPLES 1 through 43 and TABLE 2 exemplified above were assayed for activity and selectivity using the foregoing Qube® technique. The results are reported in TABLE 3 in a format expressing the identification of the compound with reference EXAMPLE followed by the observed potency in nM for NaV1.7, NaV1.6 and NaV1.5. NA signifies not applicable and the max concentration tested is 33750 nM.

[1] = molecular target: T1, human Nav1.7 channels stably expressed in HEK 293 cells (Homo sapiens, UniProt Q15858); settings: max concentration tested 33750 nM, read-out: NaV1.7 (nM)
T1 construct: expressed in transfected cells; host or cells: HEK 293
T1 sequence (Q15858 whole entry): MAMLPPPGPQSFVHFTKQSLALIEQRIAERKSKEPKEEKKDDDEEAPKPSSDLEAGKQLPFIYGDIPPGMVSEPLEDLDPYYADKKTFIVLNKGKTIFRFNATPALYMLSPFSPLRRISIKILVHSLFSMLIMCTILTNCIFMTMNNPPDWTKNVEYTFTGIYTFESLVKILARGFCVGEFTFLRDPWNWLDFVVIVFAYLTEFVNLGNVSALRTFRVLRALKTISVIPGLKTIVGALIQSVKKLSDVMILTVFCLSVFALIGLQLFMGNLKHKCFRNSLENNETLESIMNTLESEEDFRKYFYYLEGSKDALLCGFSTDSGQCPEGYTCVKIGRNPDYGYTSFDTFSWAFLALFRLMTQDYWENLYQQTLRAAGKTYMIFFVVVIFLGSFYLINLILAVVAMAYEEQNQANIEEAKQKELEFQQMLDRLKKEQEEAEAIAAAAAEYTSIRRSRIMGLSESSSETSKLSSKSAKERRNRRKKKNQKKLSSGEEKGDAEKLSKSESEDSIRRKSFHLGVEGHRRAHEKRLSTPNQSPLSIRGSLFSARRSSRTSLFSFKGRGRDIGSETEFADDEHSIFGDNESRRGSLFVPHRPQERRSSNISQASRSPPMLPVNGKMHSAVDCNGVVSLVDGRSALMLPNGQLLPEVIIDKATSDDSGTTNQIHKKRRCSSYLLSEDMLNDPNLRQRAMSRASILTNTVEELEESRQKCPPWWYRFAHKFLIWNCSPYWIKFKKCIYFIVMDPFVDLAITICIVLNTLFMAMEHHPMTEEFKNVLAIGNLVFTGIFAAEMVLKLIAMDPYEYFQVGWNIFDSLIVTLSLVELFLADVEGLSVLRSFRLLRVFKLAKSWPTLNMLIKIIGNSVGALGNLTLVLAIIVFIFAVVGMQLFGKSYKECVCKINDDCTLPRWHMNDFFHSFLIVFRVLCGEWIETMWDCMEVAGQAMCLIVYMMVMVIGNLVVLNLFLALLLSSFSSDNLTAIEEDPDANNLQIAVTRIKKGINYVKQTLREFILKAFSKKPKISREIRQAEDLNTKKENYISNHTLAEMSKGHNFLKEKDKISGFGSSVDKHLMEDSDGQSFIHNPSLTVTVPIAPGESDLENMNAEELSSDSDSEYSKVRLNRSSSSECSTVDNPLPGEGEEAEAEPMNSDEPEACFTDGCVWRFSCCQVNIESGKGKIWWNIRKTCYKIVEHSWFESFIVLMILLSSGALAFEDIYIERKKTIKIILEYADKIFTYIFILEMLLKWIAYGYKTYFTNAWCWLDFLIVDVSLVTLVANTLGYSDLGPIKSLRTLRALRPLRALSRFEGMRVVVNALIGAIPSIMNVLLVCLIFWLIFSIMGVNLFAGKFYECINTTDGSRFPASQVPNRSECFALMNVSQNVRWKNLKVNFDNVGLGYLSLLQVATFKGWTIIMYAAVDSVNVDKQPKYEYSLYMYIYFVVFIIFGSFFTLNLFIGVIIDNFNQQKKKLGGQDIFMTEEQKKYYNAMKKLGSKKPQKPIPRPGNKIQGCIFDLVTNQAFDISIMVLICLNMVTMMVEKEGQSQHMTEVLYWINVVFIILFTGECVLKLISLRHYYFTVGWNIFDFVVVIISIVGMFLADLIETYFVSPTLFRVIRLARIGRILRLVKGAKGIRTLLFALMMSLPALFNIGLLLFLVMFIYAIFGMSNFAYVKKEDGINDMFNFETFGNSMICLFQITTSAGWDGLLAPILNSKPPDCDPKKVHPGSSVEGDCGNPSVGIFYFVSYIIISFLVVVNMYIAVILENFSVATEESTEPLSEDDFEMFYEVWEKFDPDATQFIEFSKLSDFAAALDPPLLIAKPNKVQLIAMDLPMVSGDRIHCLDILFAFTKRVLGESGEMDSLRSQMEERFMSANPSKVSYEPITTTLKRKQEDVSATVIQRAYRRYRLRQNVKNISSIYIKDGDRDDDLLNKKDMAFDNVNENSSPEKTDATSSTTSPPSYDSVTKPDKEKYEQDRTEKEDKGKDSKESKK
Experimental: (§3) Qube™ Experimental Procedure:
as §1, §2

[2] = molecular target: T2, human Nav1.6 channels stably expressed in HEK 293 cells (Homo sapiens, UniProt Q9UQD0); settings: holding potential −65 mV; max concentration tested 33750 nM
T2 construct: expressed in transfected cells; host or cells: HEK 293
Experimental: as §3, §1, §2

[3] = holding potential −75 mV, −75 mV
[4] = holding potential −80 mV, −80 mV

Structure (SMILES) | IC50 (NaV1.5) | IC50 [1, 3] | IC50 [2] | IC50 [1, 4]
Cc1cc(NC[C@H](CC(C)(C)CCN)[C@@H](C)N)c(Cl)cc1S(=O)(=O)Nc1ncns1 [Example 32, 4-(((S)-6-amino-2-((R)-1-aminoethyl)-4,4-dimethylhexyl)amino)-5-chloro-2-methyl-N-(1,2,4-thiadiazol-5-yl)benzenesulfonamide] | 20700 nM | 19 nM | > 33800 nM | –
C[C@@H](N)[C@H](CNc1cc(F)c(S(=O)(=O)Nc2ncns2)cc1-c1nccs1)CC(C)(C)CCN [Example 40, 4-(((S)-6-amino-2-((R)-1-aminoethyl)-4,4-dimethylhexyl)amino)-2-fluoro-N-(1,2,4-thiadiazol-5-yl)-5-(thiazol-2-yl)benzenesulfonamide] | > 33800 nM | – | 11600 nM | 17 nM
C[C@@H](N)[C@H](CNc1cc(F)c(S(=O)(=O)Nc2ncns2)cc1F)CC1(CCN(C)C)CCC1 [Example 43, 4-(((2S,3R)-3-amino-2-((1-(2-(dimethylamino)ethyl)cyclobutyl)methyl)butyl)amino)-2,5-difluoro-N-(1,2,4-thiadiazol-5-yl)benzenesulfonamide] | > 33800 nM | – | > 33800 nM | 61 nM
Cc1cc(NC[C@H](CC(C)(C)CCN)[C@@H](C)N)c(C#N)cc1S(=O)(=O)Nc1ncns1 [Example 68] | > 33800 nM | 37 nM | 10100 nM | –
COc1cc(S(=O)(=O)Nc2ncns2)c(F)cc1NCC(CC1(CN)CCC1)[C@@H](C)N (stereo partly drawn) [Example 73] | > 33800 nM | 23 nM | > 33800 nM | –
C[C@@H](N)[C@H](CNc1cc(F)c(S(=O)(=O)Nc2ncns2)cc1CO)CC(N)C1CC1 (stereo partly drawn) [Example 80] | > 33800 nM | 71 nM | > 33800 nM | –
CCC(N)C[C@@H](CNc1cc(F)c(S(=O)(=O)Nc2ncns2)cc1OC)[C@@H](C)N (stereo partly drawn) [Example 83] | > 33800 nM | 48 nM | > 33800 nM | –
C[C@@H](N)[C@H](CNc1ccc(S(=O)(=O)Nc2ncns2)c(F)c1F)CC1(CCN)CCC1 [Example 100] | > 33800 nM | – | > 33800 nM | 52 nM
C[C@@H](N)C(CNc1cc(F)c(S(=O)(=O)Nc2ncns2)cc1Cl)CN1CCCC1 (stereo partly drawn) [Example 110] | > 33800 nM | 110 nM | > 33800 nM | –
